The results in this text go back to BindingDB's records for doi:10.1016/j.chembiol.2010.06.007 (Stanford School of Medicine, 2010).

In the assay the target is Dipeptidyl aminopeptidase 1 (Plasmodium falciparum). The assay can be described thus: DPAP1 inhibtion was measured using DPAP1-specific fluorogenic assay. IC50 DPAP1 were determined after 30 min incubation of parasite lysates with 5 nM to 100 mM inhibitor. ki values were obtained by fitting the data to Equation 1.

The IC50 is the concentration at which inhibition is half-maximal. Read a low IC50 as inhibition by little substance.

SMILES strings stand for the structures. Some results are limits rather than exact numbers.

Compound `CCCCC(C(=O)COc1c(F)c(F)cc(F)c1F)n1cc(C2(N)CCCCC2)nn1` (configuration not stated) [HN3019] showed an IC50 of 560 nM.

`CCCCC(C(=O)COc1c(F)c(F)cc(F)c1F)n1cc([C@@](C)(N)C2CCCCC2)nn1` (some centres not stated) [ML4046A] displayed an IC50 of 700 nM.

In turn, `CCCCC(C(=O)COc1c(F)c(F)cc(F)c1F)n1cc([C@](C)(N)C2CCCCC2)nn1` (some centres not stated) [ML4046B] returned an IC50 of more than 20000 nM.

In the case of `CCCCC(C(=O)COc1c(F)c(F)cc(F)c1F)n1cc(C(C)(N)Cc2ccccc2)nn1` (configuration not stated) [ML4053], the half-maximal inhibitory concentration (IC50) was more than 100000 nM.

For `CCCCC(C(=O)COc1c(F)c(F)cc(F)c1F)n1cc(C(C)N)nn1` (configuration not stated) [ML4057], the 50% inhibitory concentration (IC50) was determined as 700 nM.

As to `CCCCC(C(=O)COc1c(F)c(F)cc(F)c1F)n1cc(C(C)(C)N)nn1` (configuration not stated) [ML4066], the IC50 is 1100 nM.

Regarding `CCCCC(C(=O)COc1c(F)c(F)cc(F)c1F)n1cc(C(N)Cc2ccccc2)nn1` (configuration not stated) [ML4068], it took 74000 nM to reach half-maximal inhibition (IC50).

Compound `CCCCC(C(=O)COC(=O)c1c(C)cccc1C)n1cc(C2(N)CCCCC2)nn1` (configuration not stated) [ML4091] returned a concentration for half-maximal inhibition (IC50) of 11000 nM.

`CCCCC(C#N)n1cc(C2(N)CCCCC2)nn1` (configuration not stated) [ML4101]: the IC50 was more than 100000 nM.

As to `CCCCC(C(=O)COc1c(F)c(F)cc(F)c1F)n1cc(C(C)(N)CCC)nn1` (configuration not stated) [ML4123], the concentration for half-maximal inhibition (IC50) was found to be 410 nM.

Compound `CCCCC(C(=O)COc1c(F)c(F)cc(F)c1F)n1cc(C(N)(CCC)CCC)nn1` (configuration not stated) [ML4124] gave an IC50 of 700 nM.

Regarding `CCCCC(C(=O)COc1c(F)c(F)cc(F)c1F)n1cc(C2(N)CCN(C(N)=O)CC2)nn1` (configuration not stated) [ML4154], the IC50 was more than 20000 nM.

In turn, `CCCCC(C(=O)COc1c(F)c(F)cc(F)c1F)n1cc(C(N)(CC)CC)nn1` (configuration not stated) [ML4161] registered a concentration for half-maximal inhibition (IC50) of 410 nM.

`CCCCC(C(=O)COc1c(F)c(F)cc(F)c1F)n1cc(C2(N)CCNCC2)nn1` (configuration not stated) [ML4162] came in with an IC50 of more than 20000 nM.

`CCCCC(C(=O)COc1c(F)c(F)cc(F)c1F)n1cc(C2(N)CCN(C(C)=O)CC2)nn1` (configuration not stated) [ML4163] came in with an IC50 of more than 20000 nM.

In turn, `CCCCC(C(=O)COc1c(F)c(F)cc(F)c1F)n1cc(C(CCC)(CCC)NC)nn1` (configuration not stated) [ML5004] returned an IC50 of 7700 nM.

On to `CCCCC(C(=O)COc1c(F)c(F)cc(F)c1F)n1cc(C2(C)CCCN2)nn1` (configuration not stated) [ML6076], for which the midpoint of inhibition, the IC50, lay at 420 nM.
